# US11666644B2, “Peptide vaccines” (TREOS BIO LIMITED, priority 2018, dated 2023)
# Tested on: metastatic ovarian adenocarcinoma
# Assay: Patient-A clinical outcome and tumor MRI findings (lesion responses)
# Assay type: in vivo, human
# Settings: SUM of lesions, Dec. 25, 2016, before PIT vaccine treatment
# Excerpt: For treatment of Patient-A the 13 peptides were formulated as 4×3 or 4 peptide (POC01/1, POC01/2, POC01/3, POC01/4). One treatment cycle is defined as administration of all 13 peptides within 30 days.
# 2017-2018: Patient-A received 8 cycles of vaccination as add-on therapy, and lived 17 months (528 days) after start of the treatment. […] They died in October 2018.
# Patient's tumor MRI findings (Baseline Apr. 15, 2016) (BL: baseline for tumor response evaluation on FIG. 35)
# • Rapid progression in lymph nodes, hepatic, retroperitoneal and thoracic areas, significant pleural fluid and ascites. Initiate Carboplatin, Gemcitabine, Avastin. Sep. […] Nov. […] Remission in hepatic, retroperitoneal area and lymph nodes Apr. 13, 2018: Progression • Complete remission in the thoracic and retroperitoneal regions. Progression in hepatic centers and lymph nodes Jun. […] Minimal regression in hepatic centers and lymph nodes July 2018: Progression October 2018: Patient-A died Partial MRI data for Patient-A is shown in Table 23 and FIG. 35.
row,Compound,FU2 (% Δ from BL)
1,O=C(c1cc(Cc2n[nH]c(=O)c3ccccc23)ccc1F)N1CCN(C(=O)C2CC2)CC1 [Olaparib],−76.0%

# Same assay, conditions: lesion TL2, Dec. 25, 2016, before PIT vaccine treatment
row,Compound,FU2 (% Δ from BL)
1,O=C(c1cc(Cc2n[nH]c(=O)c3ccccc23)ccc1F)N1CCN(C(=O)C2CC2)CC1 [Olaparib],−100.0%

# Same assay, conditions: lesion TL2, follow up 1, Olaparib treatment May 2016-January 2017
row,Compound,FUI (% Δ from BL)
1,O=C(c1cc(Cc2n[nH]c(=O)c3ccccc23)ccc1F)N1CCN(C(=O)C2CC2)CC1 [Olaparib],−100.0%

# Same assay, conditions: lesion TL2, follow-up time point of best response
row,Compound,Best Response Cycle
1,O=C(c1cc(Cc2n[nH]c(=O)c3ccccc23)ccc1F)N1CCN(C(=O)C2CC2)CC1 [Olaparib],FU1

# Same assay, conditions: lesion TL4, Dec. 25, 2016, before PIT vaccine treatment
row,Compound,FU2 (% Δ from BL)
1,O=C(c1cc(Cc2n[nH]c(=O)c3ccccc23)ccc1F)N1CCN(C(=O)C2CC2)CC1 [Olaparib],−100.0%

# Same assay, conditions: lesion TL4, follow-up time point of best response
row,Compound,Best Response Cycle
1,O=C(c1cc(Cc2n[nH]c(=O)c3ccccc23)ccc1F)N1CCN(C(=O)C2CC2)CC1 [Olaparib],FU2

# Tested on: HLA class I
# Assay: PEPI3+ Test: 9 mer epitopes binding to at least 3 HLA class I of individuals in the Model Population (n=433)
# Design: species or system human
# Settings: N % (antigen expression frequency in lung cancers) multiplied by B %
row,N % * B %,Compound
1,28%,90 (FAADVRLMF; BRDT 9mer) [compound 90]
2,23%,91 (KAMVQAWPF; PRAME 9mer) [compound 91]
3,21%,92 (FSWPFQRPV; BRDT 9mer) [compound 92]
4,19%,93 (YSSFVFNLF; NALP4 9mer) [compound 93]
5,18%,94 (RAMEAFNLV; NALP4 9mer) [compound 94]
6,17%,95 (FVIDSFEEL; NALP4 9mer) [compound 95]
7,15%,97 (FAHPRKLLM; MAGE-A2 9mer) [compound 97]
8,14%,99 (YIAQFTSQF; PRAME 9mer) [compound 99]
9,14%,100 (HVMNPLETL; PRAME 9mer) [compound 100]
10,13%,101 (FQDFFPVIF; MAGE-A12 9mer) [compound 101]
11,13%,102 (LLRHVMNPL; PRAME 9mer) [compound 102]
12,13%,103 (KMMKRLMTV; DPPA2 9mer) [compound 103]
13,12%,104 (FVLANGHIL; NY-SAR-35 9mer) [compound 104]
14,11%,105 (MLAKKHFSY; BRDT 9mer) [compound 105]
15,11%,106 (SVMDLVGSI; LDHC 9mer) [compound 106]
16,11%,107 (MMDLQHGSL; LDHC 9mer) [compound 107]
17,10%,108 (FSTTINYTL; MAGE-A2 9mer) [compound 108]
18,10%,109 (MASESLSVM; MAGE-C2 9mer) [compound 109]
19,10%,110 (FVYGEPREL; MAGE-C2 9mer) [compound 110]
20,9%,112 (FVQENYLEY; MAGE-A3 9mer) [compound 112]
21,9%,115 (YLRLHRHAY; DPPA2 9mer) [compound 115]
22,7%,117 (SSNSTALAL; KK-LC-1 9mer) [compound 117]
23,7%,118 (FSTSSSLIL; MAGE-C2 9mer) [compound 118]
24,5%,119 (RALAETSYV; MAGE-A1 9mer) [compound 119]
25,9%,SEQ ID NO: 111: 9 mer bestEPI of MAGE-C2 within 15 mer SEQ ID NO: 141; printed 'ill' (SVMSSNVSF; MAGE-C2 9mer)

row,Compound,N % * B %
1,98 (RAIEQLAAM; SURVIVIN 9mer) [compound 98],15%
2,114 (STFKNWPFL; SURVIVIN 9mer) [compound 114],9%

# Tested on: HLA class I
# Assay: as above
# Design: species or system human
# Settings: B % multiplied by N % (antigen expression frequency in gastric cancers)
# Excerpt: Predicted binding between particular HLA and epitopes (9 mer peptides) was based on the Immune Epitope Database tool for epitope prediction (iedb.org).
# The validated HLA-epitope binding prediction process was used to determine all HLA-epitope binding pairs described in the Examples below.
# An in silico human trial cohort of 433 subjects with complete 4-digit HLA class I […] genotype (2×HLA-A*xx:xx; 2×HLA-B*xx:xx; 2×HLA-C*xx:xx) and demographic […] information was compiled. This Model Population has subjects with mixed ethnicity having a total of 152 different HLA alleles that are representative for >85% of presently known allele G-groups.
# To select immunogenic peptides from the target CTAs, the PEPI3+ Test and the Model Population described in Example 8 were used to identify the 9 mer epitopes (PEPI3+s) that are most frequently presented by at least 3 HLAs of the individuals in the Model Population. These epitopes are referred to herein as “bestEPIs”. An illustrative example of the “PEPI3+ hotspot” analysis and bestEPI identification is shown in FIG. 15 for the PRAME antigen.
# The reported expression frequency for each CTA was multiplied by the frequency of the PEPI3+ hotspots in the Model Population to identify the T cell epitopes (9 mers) that will induce a cytotoxic T cell response against gastric cancer antigens in the highest proportion of individuals (Table 20a). 15 mers were then selected encompassing each of the selected 9 mers (Table 20a). The 15 mers were selected to bind to most HLA class II alleles of most subjects. These 15 mers can induce both CTL and T helper responses in the highest proportion of subjects.
row,B % * N %,Compound
1,43%,1 (KMMKRLMTV; MAGE-C1 9mer) [compound 1]
2,33%,2 (KMHSLLALM; CAGE-1 9mer) [compound 2]
3,29%,3 (FSYEQDPTL; TSP50 9mer) [compound 3]
4,28%,4 (YLRLHRHAY; DPPA2 9mer) [compound 4]
5,28%,5 (LQYENSIML; HIWI 9mer) [compound 5]
6,21%,7 (FVASINEGM; HIWI 9mer) [compound 7]
7,21%,8 (TTMETQFPV; TSP50 9mer) [compound 8]
8,21%,9 (LASNHFLYL; 5T4 9mer) [compound 9]
9,21%,10 (FLYLPRDVL; 5T4 9mer) [compound 10]
10,17%,11 (SSFSSSAPF; 5T4 9mer) [compound 11]
11,17%,12 (FAHPRKLLM; MAGE-A2 9mer) [compound 12]
12,17%,13 (SSNSTALAL; KK-LC-1 9mer) [compound 13]
13,16%,14 (STNALIQPV; CAGE-1 9mer) [compound 14]
14,12%,16 (FSTTINYTL; MAGE-A2 9mer) [compound 16]
15,11%,17 (ILNNFPHSI; KK-LC-1 9mer) [compound 17]
16,10%,18 (FVQENYLEY; MAGE-A3 9mer) [compound 18]
17,9%,19 (ITMPFSSPM; LAGE-1 9mer) [compound 19]
18,8%,21 (YEDHFPLLF; MAGE-A10 9mer) [compound 21]
19,8%,22 (TSYVKVLEY; MAGE-A1 9mer) [compound 22]
20,8%,24 (NTDNNLAVY; KK-LC-1 9mer) [compound 24]
21,7%,25 (KAMVQAWPF; PRAME 9mer) [compound 25]
22,7%,27 (SAFPTTINF; MAGE-A1 9mer) [compound 27]
23,7%,28 (MTFGRLHRI; SSX1 9mer) [compound 28]
24,5%,29 (RALAETSYV; MAGE-A1 9mer) [compound 29]
25,4%,30 (HVMNPLETL; PRAME 9mer) [compound 30]

row,Compound,B % * N %
1,6 (RAIEQLAAM; SURVIVIN 9mer) [compound 6],26%
2,15 (STFKNWPFL; SURVIVIN 9mer) [compound 15],15%
